Measurements as given in ChEMBL document CHEMBL2331078, “Quantitative purity-activity relationships of natural products: the case of anti-tuberculosis active triterpenes from Oplopanax horridus” (2013).
Values after ≈ are worked out from the molar mass of the structure shown. Active and inactive are the calls of the source. The calls are words filed in the database; no cut-off is given here.

Tests used:
[1] = system: Mycobacterium tuberculosis; assay: Antimycobacterial activity against Mycobacterium tuberculosis H37Rv ATCC 27294 by Alamar blue assay; format: functional, organism-based
[2] = system: Mycobacterium tuberculosis; assay: Antimycobacterial activity against Mycobacterium tuberculosis; format: functional

SMILES	Activity [1]	MIC [2] [mg/L]
CC1(C)CC[C@]2(C(=O)O)CC[C@]3(C)C(=CC[C@@H]4[C@@]5(C)CC[C@@H](O)[C@@](C)(C(=O)O)[C@@H]5CC[C@]43C)[C@@H]2C1	Active	–
CC1(C)CC[C@]2(C(=O)O)CC[C@]3(C)C(=CC[C@@H]4[C@@]5(C)CC[C@H](O)C(C)(C)[C@@H]5CC[C@]43C)[C@@H]2C1 [OLEANOLIC_ACID]	–	29 (≈ 63.5 µM)
C=C(C)[C@@H]1CC[C@]2(C(=O)O)CC[C@]3(C)[C@H](CC[C@@H]4[C@@]5(C)CC[C@@H](O)[C@@](C)(C(=O)O)[C@@H]5CC[C@]43C)[C@@H]12	Active	54 (≈ 111 µM)
C=C(C)[C@@H]1CC[C@]2(C(=O)O)CC[C@]3(C)[C@H](CC[C@@H]4[C@@]5(C)CC[C@H](O)C(C)(C)[C@@H]5CC[C@]43C)[C@@H]12 [BETULINIC ACID]	–	62 (≈ 136 µM)
